Experimental data from PubChem BioAssay (NCI).
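Growth conditions: 96-well plates. Treatment: test compound, 48 hours, 5 concentrations. Analysis: linear interpolation between bracketing concentrations; unreached endpoints set to highest concentration. GI50 = concentration required for 50% inhibition of growth. TGI: concentration producing complete growth inhibition.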

How the values were obtained:
Experiment in all cases: growth of human tumour cells (NCI), 48 h
OVCAR-8 ovarian = tested on: OVCAR-8 ovarian
MALME-3M melanoma = tested on: MALME-3M melanoma
UO-31 renal = tested on: UO-31 renal
UACC-257 melanoma = tested on: UACC-257 melanoma
A549 NSCLC = tested on: A549 NSCLC
SW-620 colon = tested on: SW-620 colon
CAKI-1 renal = tested on: CAKI-1 renal
MDA-MB-435 = tested on: MDA-MB-435
HL-60(TB) leukemia = tested on: HL-60(TB) leukemia
MDA-MB-231 breast = tested on: MDA-MB-231 breast
U251 CNS = tested on: U251 CNS
HT29 colon = tested on: HT29 colon
NCI/ADR-RES ovarian = tested on: NCI/ADR-RES ovarian
DU-145 prostate = tested on: DU-145 prostate
786-0 renal = tested on: 786-0 renal
OVCAR-5 ovarian = tested on: OVCAR-5 ovarian
K-562 leukemia = tested on: K-562 leukemia
CCRF-CEM leukemia = tested on: CCRF-CEM leukemia
OVCAR-4 ovarian = tested on: OVCAR-4 ovarian
SNB-19 CNS = tested on: SNB-19 CNS
HCT-15 colon = tested on: HCT-15 colon
ACHN renal = tested on: ACHN renal
SK-MEL-28 melanoma = tested on: SK-MEL-28 melanoma
OVCAR-3 ovarian = tested on: OVCAR-3 ovarian
RPMI-8226 leukemia = tested on: RPMI-8226 leukemia
NCI-H226 lung = tested on: NCI-H226 lung
BT-549 breast = tested on: BT-549 breast
RXF 393 renal = tested on: RXF 393 renal
NCI-H460 lung = tested on: NCI-H460 lung
IGROV1 ovarian = tested on: IGROV1 ovarian
NCI-H23 lung = tested on: NCI-H23 lung
COLO 205 colon = tested on: COLO 205 colon
MOLT-4 leukemia = tested on: MOLT-4 leukemia
UACC-62 melanoma = tested on: UACC-62 melanoma
HCC-2998 colon = tested on: HCC-2998 colon
A498 renal = tested on: A498 renal
SK-MEL-5 melanoma = tested on: SK-MEL-5 melanoma
M14 melanoma = tested on: M14 melanoma
LOX IMVI melanoma = tested on: LOX IMVI melanoma
MCF7 breast = tested on: MCF7 breast
SK-OV-3 ovarian = tested on: SK-OV-3 ovarian
KM12 colon = tested on: KM12 colon
HOP-62 NSCLC = tested on: HOP-62 NSCLC
HS 578T breast = tested on: HS 578T breast
SR leukemia = tested on: SR leukemia
PC-3 prostate = tested on: PC-3 prostate
HCT-116 colon = tested on: HCT-116 colon
SNB-75 CNS = tested on: SNB-75 CNS
SK-MEL-2 melanoma = tested on: SK-MEL-2 melanoma
HOP-92 NSCLC = tested on: HOP-92 NSCLC
EKVX NSCLC = tested on: EKVX NSCLC
SF-295 CNS = tested on: SF-295 CNS
NCI-H522 lung = tested on: NCI-H522 lung
TK-10 renal = tested on: TK-10 renal
T-47D breast = tested on: T-47D breast
SF-268 CNS = tested on: SF-268 CNS
SN12C renal = tested on: SN12C renal

In the case of `CCOC(=O)C#Cc1c(C(=O)OCC)nnn1[C@@H]1O[C@H](CO)[C@H]2OC3(CCCCC3)O[C@H]21`, the GI50 (OVCAR-8 ovarian) is reported as 3.81 µM, the TGI (OVCAR-8 ovarian) is reported as 13.2 µM and the GI50 (MALME-3M melanoma) is reported as 1.87 µM. For the same compound, the TGI (MALME-3M melanoma) was 3.76 µM, the GI50 (UO-31 renal) was 1.67 µM and the TGI (UO-31 renal) was 3.28 µM. For the same compound, the GI50 (UACC-257 melanoma) was 2.93 µM, the TGI (UACC-257 melanoma) was 7.52 µM and the GI50 (A549 NSCLC) was 19.9 µM. It also gave a TGI (A549 NSCLC) of 35.8 µM, a GI50 (SW-620 colon) of 1.81 µM and a TGI (SW-620 colon) of 3.64 µM. For the same compound, the GI50 (CAKI-1 renal) was 1.76 µM, the TGI (CAKI-1 renal) was 3.31 µM and the GI50 (MDA-MB-435) was 4.49 µM. The TGI (MDA-MB-435) was 16 µM, the GI50 (HL-60(TB) leukemia) was 1.87 µM and the TGI (HL-60(TB) leukemia) was 5.88 µM. The GI50 (MDA-MB-231 breast) was 2.97 µM, the TGI (MDA-MB-231 breast) was 8.79 µM and the GI50 (U251 CNS) was 11.2 µM. It also gave a TGI (U251 CNS) of 23.2 µM, a GI50 (HT29 colon) of 1.93 µM and a TGI (HT29 colon) of 3.77 µM. The GI50 (NCI/ADR-RES ovarian) was 7.27 µM, the TGI (NCI/ADR-RES ovarian) was 29.8 µM and the GI50 (DU-145 prostate) was 3.89 µM. For the same compound, the TGI (DU-145 prostate) was 13.6 µM, the GI50 (786-0 renal) was 2.88 µM and the TGI (786-0 renal) was 8.62 µM. For the same compound, the GI50 (OVCAR-5 ovarian) was 8.09 µM, the TGI (OVCAR-5 ovarian) was 22.6 µM and the GI50 (K-562 leukemia) was 1.67 µM. It also gave a TGI (K-562 leukemia) of 7.97 µM, a GI50 (CCRF-CEM leukemia) of 1.62 µM and a TGI (CCRF-CEM leukemia) of 4.85 µM. The GI50 (OVCAR-4 ovarian) was 2.04 µM, the TGI (OVCAR-4 ovarian) was 4.48 µM and the GI50 (SNB-19 CNS) was 18.3 µM. The TGI (SNB-19 CNS) was 40.5 µM, the GI50 (HCT-15 colon) was 1.87 µM and the TGI (HCT-15 colon) was 3.53 µM. The GI50 (ACHN renal) was 1.8 µM, the TGI (ACHN renal) was 3.41 µM and the GI50 (SK-MEL-28 melanoma) was 2.06 µM. For the same compound, the TGI (SK-MEL-28 melanoma) was 4.51 µM, the GI50 (OVCAR-3 ovarian) was 1.7 µM and the TGI (OVCAR-3 ovarian) was 3.21 µM. The GI50 (RPMI-8226 leukemia) was 3.07 µM, the TGI (RPMI-8226 leukemia) was 7.97 µM and the GI50 (NCI-H226 lung) was 1.72 µM. For the same compound, the TGI (NCI-H226 lung) was 3.17 µM, the GI50 (BT-549 breast) was 8.66 µM and the TGI (BT-549 breast) was 20.8 µM. For the same compound, the GI50 (RXF 393 renal) was 1.8 µM, the TGI (RXF 393 renal) was 3.46 µM and the GI50 (NCI-H460 lung) was 13.4 µM. The TGI (NCI-H460 lung) was 28.9 µM, the GI50 (IGROV1 ovarian) was 15.5 µM and the TGI (IGROV1 ovarian) was 36.7 µM. It also gave a GI50 (NCI-H23 lung) of 10.1 µM, a TGI (NCI-H23 lung) of 28.4 µM and a GI50 (COLO 205 colon) of 1.98 µM. For the same compound, the TGI (COLO 205 colon) was 4.06 µM, the GI50 (MOLT-4 leukemia) was 1.95 µM and the TGI (MOLT-4 leukemia) was 5.42 µM. The GI50 (UACC-62 melanoma) was 2.02 µM, the TGI (UACC-62 melanoma) was 4.55 µM and the GI50 (HCC-2998 colon) was 18 µM. For the same compound, the TGI (HCC-2998 colon) was 32.8 µM, the GI50 (A498 renal) was 17.6 µM and the TGI (A498 renal) was 31.8 µM. For the same compound, the GI50 (SK-MEL-5 melanoma) was 13.7 µM, the TGI (SK-MEL-5 melanoma) was 26.6 µM and the GI50 (M14 melanoma) was 2.67 µM. The TGI (M14 melanoma) was 7.6 µM, the GI50 (LOX IMVI melanoma) was 1.31 µM and the TGI (LOX IMVI melanoma) was 2.83 µM. It also gave a GI50 (MCF7 breast) of 2.11 µM, a TGI (MCF7 breast) of 6.56 µM and a GI50 (SK-OV-3 ovarian) of 17.7 µM. The TGI (SK-OV-3 ovarian) was 33.3 µM, the GI50 (KM12 colon) was 12.2 µM and the TGI (KM12 colon) was 27 µM. It also gave a GI50 (HOP-62 NSCLC) of 17.7 µM, a TGI (HOP-62 NSCLC) of 33.7 µM and a GI50 (HS 578T breast) of 19.6 µM. For the same compound, the TGI (HS 578T breast) was 58.3 µM, the GI50 (SR leukemia) was 1.63 µM and the TGI (SR leukemia) was 4.64 µM. It also gave a GI50 (PC-3 prostate) of 13.5 µM, a TGI (PC-3 prostate) of 26.8 µM and a GI50 (HCT-116 colon) of 1.92 µM. For the same compound, the TGI (HCT-116 colon) was 3.48 µM, the GI50 (SNB-75 CNS) was 11.5 µM and the TGI (SNB-75 CNS) was 24.2 µM. It also gave a GI50 (SK-MEL-2 melanoma) of 17.7 µM, a TGI (SK-MEL-2 melanoma) of 34 µM and a GI50 (HOP-92 NSCLC) of 2.23 µM. The TGI (HOP-92 NSCLC) was 5.27 µM, the GI50 (EKVX NSCLC) was 15.6 µM and the TGI (EKVX NSCLC) was 30.1 µM. For the same compound, the GI50 (SF-295 CNS) was 20.9 µM, the TGI (SF-295 CNS) was 45.3 µM and the GI50 (NCI-H522 lung) was 1.96 µM. The TGI (NCI-H522 lung) was 4.09 µM, the GI50 (TK-10 renal) was 1.79 µM and the TGI (TK-10 renal) was 3.28 µM. For the same compound, the GI50 (T-47D breast) was 2.21 µM, the TGI (T-47D breast) was 5.47 µM and the GI50 (SF-268 CNS) was 14.3 µM. The TGI (SF-268 CNS) was 34.6 µM, the GI50 (SN12C renal) was 3.11 µM and the TGI (SN12C renal) was 9.37 µM.
